Test results: PMC12595434, “Development of retinoid nuclear receptor pathway antagonists through targeting aldehyde dehydrogenase 1A3” (iScience, 2025)
Where “and” joins values, the source holds several entries; their conditions need not be identical. Equal values may be shown once.

Assays:
PDE3A = PDE3A (Homo sapiens, UniProt Q14432); assay: Off-target profiling panel; format: biochemical
FAM204A = biological target: T1, FAM204A (Homo sapiens, UniProt Q9H8W3); assay: Thermal proteome profiling (TPP) in A375 cells; format: cell-based
T1 construct: Treated A375 cells were harvested from 10 × 15 cm plates; endogenous in cells; host or cells: A375 melanoma cells
T1 sequence (Q9H8W3 whole entry): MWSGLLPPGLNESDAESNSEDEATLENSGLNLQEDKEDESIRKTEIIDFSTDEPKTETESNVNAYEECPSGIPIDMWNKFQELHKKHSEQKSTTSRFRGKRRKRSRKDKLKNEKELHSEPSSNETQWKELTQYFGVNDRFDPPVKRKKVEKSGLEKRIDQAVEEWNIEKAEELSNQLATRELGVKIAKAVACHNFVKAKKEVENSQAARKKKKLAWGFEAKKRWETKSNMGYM

GABAA = assay: Off-target profiling panel
LCK = LCK (Homo sapiens, UniProt P06239); assay: Off-target profiling panel; format: biochemical; conditions: read-out: Inhibition by MBE1 at 10 μM (%)
Sequence of LCK (P06239 whole entry): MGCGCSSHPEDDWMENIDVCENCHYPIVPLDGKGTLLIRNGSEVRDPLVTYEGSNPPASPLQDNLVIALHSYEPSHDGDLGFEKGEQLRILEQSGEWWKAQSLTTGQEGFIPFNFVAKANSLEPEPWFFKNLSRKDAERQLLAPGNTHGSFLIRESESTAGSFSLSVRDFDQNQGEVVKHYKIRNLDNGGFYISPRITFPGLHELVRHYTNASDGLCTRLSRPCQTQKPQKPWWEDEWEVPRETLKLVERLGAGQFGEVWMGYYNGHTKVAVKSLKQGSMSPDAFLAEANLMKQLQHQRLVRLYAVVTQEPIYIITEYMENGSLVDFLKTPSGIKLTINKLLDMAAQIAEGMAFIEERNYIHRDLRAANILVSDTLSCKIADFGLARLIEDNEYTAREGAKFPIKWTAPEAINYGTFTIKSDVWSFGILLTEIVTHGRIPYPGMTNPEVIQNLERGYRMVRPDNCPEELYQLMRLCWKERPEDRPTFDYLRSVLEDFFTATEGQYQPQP

nACHR-Alpha7 = nACHR-Alpha7 (Homo sapiens, UniProt P36544); assay: biochemical; format: binding; conditions: read-out: Inhibition by MBE1 at 10 μM (%)
Sequence of nACHR-Alpha7 (P36544 23-502): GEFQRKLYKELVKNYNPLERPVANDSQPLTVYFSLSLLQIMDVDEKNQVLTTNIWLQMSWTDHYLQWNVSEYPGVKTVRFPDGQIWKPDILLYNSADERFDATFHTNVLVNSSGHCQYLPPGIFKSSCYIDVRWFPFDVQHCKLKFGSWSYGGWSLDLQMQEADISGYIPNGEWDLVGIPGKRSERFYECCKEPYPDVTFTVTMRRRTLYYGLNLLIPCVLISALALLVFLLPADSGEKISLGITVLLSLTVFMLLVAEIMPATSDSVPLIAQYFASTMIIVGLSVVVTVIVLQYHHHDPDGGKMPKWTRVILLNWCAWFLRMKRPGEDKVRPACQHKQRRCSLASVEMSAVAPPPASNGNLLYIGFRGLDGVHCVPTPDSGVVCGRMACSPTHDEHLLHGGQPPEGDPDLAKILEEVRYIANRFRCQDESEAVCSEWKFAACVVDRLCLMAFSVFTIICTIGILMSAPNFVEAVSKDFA

LN229 cells = assay: Metabolomic profiling of treated cell lines (raw metabolite counts); format: cell-based, human; conditions: LN229:MBE, replicates
Excerpt: Supplement mmc8.xlsx, sheet "Supplement Table 7" | column: LN229:MBE

NPTN = assay: Cellular thermal shift assay (CETSA) in A375 cells; format: cell-based, human; conditions: 100 nM, 1h at 37°C
Experimental: CETSA was performed according to protocols described before.[85] Briefly, 6 × 10cm dishes of A375 cells were collected and treated with 100 nM MBE1 or 0.1% DMSO for 1h at 37°C. Afterward, cells were pelleted through centrifugation at 300g for 5 min. Cells were then washed with ice-cold PBS and resuspended in 800 μL of PBS. Cell suspension was aliquoted to 7xPCR tubes with 100 μL each and subjected to thermal denaturation at 46.3, 48.6, 52.2, 56.5, 60.1, 62.5, 64.0°C for 3 min. The resulting sample was snap frozen in liquid nitrogen followed by incubation at room temperature until fully thawed. This procedure was performed twice followed by brief vortexing and mixing to release soluble proteins from the cells. Samples were then transferred to 1.5 mL Eppendorf tubes and centrifuged at 20,000g for 20 min at 4°C, 90 μL of the resulting supernatant was collected into another new 1.5 mL Eppendorf tube and subjected to protein analysis by western blot (WB). NPTN (proteintech #28022-1-AP) and ALDH1A3 (abcam #ab129815) were used to detect target proteins while GelCode Blue Stain Reagent (Thermofisher scientific #24590) was used to stain for total proteins loaded in the WB analysis.

HEK293 cells = assay: Metabolomic profiling of treated cell lines (raw metabolite counts); format: cell-based; conditions: HEK293_Inhibitor, replicates A-C
Excerpt: Supplement mmc8.xlsx, sheet "Supplement Table 7" | column: HEK293_Inhibitor_A; HEK293_Inhibitor_B; HEK293_Inhibitor_C

MAO-A = MAO-A (Homo sapiens, UniProt P21397); assay: Off-target profiling panel; format: biochemical; conditions: read-out: Inhibition by MBE1 at 10 μM (%)
Sequence of MAO-A (P21397 whole entry): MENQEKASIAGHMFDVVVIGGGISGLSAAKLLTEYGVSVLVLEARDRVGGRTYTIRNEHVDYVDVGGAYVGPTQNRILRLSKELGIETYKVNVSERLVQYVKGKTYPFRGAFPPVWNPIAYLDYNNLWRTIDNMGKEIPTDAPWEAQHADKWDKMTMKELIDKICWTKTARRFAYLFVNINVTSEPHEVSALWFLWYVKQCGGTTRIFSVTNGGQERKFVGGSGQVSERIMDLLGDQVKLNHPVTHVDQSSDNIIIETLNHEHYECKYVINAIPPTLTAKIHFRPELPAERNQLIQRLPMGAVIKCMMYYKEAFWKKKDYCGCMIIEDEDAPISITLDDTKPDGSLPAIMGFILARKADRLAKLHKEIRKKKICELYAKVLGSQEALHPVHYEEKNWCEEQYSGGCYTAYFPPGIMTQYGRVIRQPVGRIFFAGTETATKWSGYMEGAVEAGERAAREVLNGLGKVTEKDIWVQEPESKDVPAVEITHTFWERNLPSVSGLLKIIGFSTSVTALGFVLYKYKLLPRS

CB1 = CB1 (Homo sapiens, UniProt P21554); assay: Off-target profiling panel; format: binding; conditions: read-out: Inhibition by MBE1 at 10 μM (%)
Sequence of CB1 (P21554 whole entry): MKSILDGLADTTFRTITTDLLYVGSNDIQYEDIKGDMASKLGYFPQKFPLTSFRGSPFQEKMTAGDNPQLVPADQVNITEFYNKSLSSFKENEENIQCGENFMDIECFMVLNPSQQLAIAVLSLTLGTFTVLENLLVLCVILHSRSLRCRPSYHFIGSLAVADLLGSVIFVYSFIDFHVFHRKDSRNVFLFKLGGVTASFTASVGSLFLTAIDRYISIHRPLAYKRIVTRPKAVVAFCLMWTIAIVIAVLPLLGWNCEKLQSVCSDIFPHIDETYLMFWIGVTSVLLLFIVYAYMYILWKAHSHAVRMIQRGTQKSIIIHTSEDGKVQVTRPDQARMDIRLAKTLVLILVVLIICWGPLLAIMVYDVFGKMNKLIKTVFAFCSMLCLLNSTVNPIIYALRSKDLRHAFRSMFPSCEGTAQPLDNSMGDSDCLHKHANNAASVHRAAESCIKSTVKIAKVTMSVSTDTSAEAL

H2 = H2 (Homo sapiens, UniProt P25021); assay: Off-target profiling panel; format: binding; conditions: read-out: Inhibition by MBE1 at 10 μM (%)
Sequence of H2 (P25021 whole entry): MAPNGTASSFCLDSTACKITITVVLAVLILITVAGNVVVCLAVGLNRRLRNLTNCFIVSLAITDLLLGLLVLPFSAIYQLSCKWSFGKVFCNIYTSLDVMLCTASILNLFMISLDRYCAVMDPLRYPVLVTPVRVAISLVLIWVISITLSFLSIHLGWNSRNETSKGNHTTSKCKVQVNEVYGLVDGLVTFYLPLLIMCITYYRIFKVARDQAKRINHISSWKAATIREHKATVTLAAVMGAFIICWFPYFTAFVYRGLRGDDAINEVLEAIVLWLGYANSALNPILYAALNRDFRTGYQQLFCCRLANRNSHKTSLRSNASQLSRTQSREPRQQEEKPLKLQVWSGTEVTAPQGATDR

NET = NET (Homo sapiens, UniProt P23975); assay: Off-target profiling panel; format: binding; conditions: read-out: Inhibition by MBE1 at 10 μM (%)
Sequence of NET (P23975 whole entry): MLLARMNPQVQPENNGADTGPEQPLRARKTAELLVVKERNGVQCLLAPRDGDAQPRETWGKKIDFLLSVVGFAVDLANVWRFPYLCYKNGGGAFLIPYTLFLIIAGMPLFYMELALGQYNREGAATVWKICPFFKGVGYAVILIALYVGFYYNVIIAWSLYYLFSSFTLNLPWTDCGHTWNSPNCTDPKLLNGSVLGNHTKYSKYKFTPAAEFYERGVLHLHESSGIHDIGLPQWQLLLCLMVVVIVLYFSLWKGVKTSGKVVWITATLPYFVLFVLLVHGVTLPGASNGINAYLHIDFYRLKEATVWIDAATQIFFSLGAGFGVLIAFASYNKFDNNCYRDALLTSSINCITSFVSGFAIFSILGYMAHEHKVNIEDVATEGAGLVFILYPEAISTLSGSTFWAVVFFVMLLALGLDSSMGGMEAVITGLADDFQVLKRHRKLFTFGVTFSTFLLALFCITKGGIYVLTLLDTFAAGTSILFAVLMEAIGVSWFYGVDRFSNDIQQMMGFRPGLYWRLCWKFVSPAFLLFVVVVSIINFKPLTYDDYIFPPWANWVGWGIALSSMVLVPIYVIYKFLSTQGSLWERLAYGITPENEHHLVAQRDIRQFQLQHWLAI

T3-MCA tumors = assay: Tumor infiltrating immune cell profiling of T3-MCA tumors; conditions: oral gavage, 7 days of treatment
T3-MCA sarcoma = assay: T3-MCA syngeneic tumor growth; format: in vivo, mouse; conditions: MBE1.5-formulated diet 270 ppm (equivalent 40 mg/kg per day), by day 7 of treatment
Experimental: A considerable number of research efforts have attempted to generate retinoid nuclear receptor pathway antagonists, whether through targeting retinoid transport, the atRA synthetic enzymes, or by creating inverse agonists of the RAR/RXR nuclear receptors. […] Thus, mice were injected subcutaneously with T3-MCA sarcoma cells and were randomized by tumor size once tumors became palpable. One group received MBE1.5-formulated diet at 270 ppm (equivalent dose of 40 mg/kg body mass per day based on average food consumption), and the other group received control diet.
No statistical method was used to predetermine the number of animals needed across experiments. Xenograft experiments were conducted using 50k cells suspended in 10 μL PBS for mammary gland injection or 100k cells in 100 μL PBS for subcutaneous injection. Bioluminescent imaging (BLI) and tumor measurement was conducted as previously described.[78] IV/PO pharmacokinetic analysis of MBE1 and MBE1.5 was conducted on male CD-1 mice from Vital River that had been fasted for 4 h. Sampling was performed from either jugular puncture or tail-vein sampling using BD yellow-capped tubes for serum analysis or K2-EDTA tubes for hematology. Medicated feed was manufactured at Envigo using MBE1.5 powder with a final concentration of 270 ppm. Medicated diet was stored at 4°C for no longer than 6 months at a time.

Sequence of PDE3A (Q14432 whole entry): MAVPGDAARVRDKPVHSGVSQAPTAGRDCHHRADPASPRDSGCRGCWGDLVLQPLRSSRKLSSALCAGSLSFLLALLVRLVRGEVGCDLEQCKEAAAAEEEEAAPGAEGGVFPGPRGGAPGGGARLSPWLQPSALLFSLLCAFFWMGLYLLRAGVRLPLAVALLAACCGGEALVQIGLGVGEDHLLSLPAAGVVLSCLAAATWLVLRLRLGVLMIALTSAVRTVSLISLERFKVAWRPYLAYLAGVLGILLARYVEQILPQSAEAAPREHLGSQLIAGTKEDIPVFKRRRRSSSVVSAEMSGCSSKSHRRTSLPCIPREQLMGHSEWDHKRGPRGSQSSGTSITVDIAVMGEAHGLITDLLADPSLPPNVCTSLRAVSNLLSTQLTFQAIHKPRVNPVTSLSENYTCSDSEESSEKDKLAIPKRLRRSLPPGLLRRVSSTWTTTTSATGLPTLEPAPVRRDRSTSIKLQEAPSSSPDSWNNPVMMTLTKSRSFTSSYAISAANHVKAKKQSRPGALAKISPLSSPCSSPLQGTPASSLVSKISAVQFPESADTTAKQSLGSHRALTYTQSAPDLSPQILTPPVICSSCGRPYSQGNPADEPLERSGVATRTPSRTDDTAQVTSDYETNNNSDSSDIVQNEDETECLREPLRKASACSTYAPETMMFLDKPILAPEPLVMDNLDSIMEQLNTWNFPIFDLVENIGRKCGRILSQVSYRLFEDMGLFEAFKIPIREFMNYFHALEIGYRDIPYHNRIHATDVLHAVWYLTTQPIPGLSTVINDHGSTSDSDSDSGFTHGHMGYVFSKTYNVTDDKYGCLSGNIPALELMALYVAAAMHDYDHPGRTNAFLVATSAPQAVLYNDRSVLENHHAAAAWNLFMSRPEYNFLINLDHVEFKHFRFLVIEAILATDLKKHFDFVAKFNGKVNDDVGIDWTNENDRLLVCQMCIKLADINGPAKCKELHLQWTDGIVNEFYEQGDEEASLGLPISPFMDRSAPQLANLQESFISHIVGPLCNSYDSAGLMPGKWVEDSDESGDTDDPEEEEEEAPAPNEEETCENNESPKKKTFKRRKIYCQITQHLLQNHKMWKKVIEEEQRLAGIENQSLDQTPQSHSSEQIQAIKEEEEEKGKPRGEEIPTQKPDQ

CCc1cnccc1C(=O)Nc1cc2c(cc1F)NC(=O)CC2 [MBE1, 3-ethyl-N-(7-fluoro-2-oxo-3,4-dihydro-1H-quinolin-6-yl)pyridine-4-carboxamide]
inhibition at 10 µM (PDE3A; read-out: Inhibition by MBE1 at 10 μM (%)): 75.8%
concentration for PDE3α interaction as multiple of IC50 against ALDH1A3 (PDE3A; screen against 44 off-target proteins): > 100 fold
100nM MBE1 Tm (FAM204A): 63.4426
DMSO-100nM MBE1 TM (FAM204A): -8.6993
Inhibition by MBE1 at 10 μM (%) (GABAA): −5.08%
inhibition at 10 µM (LCK): -2.81%
inhibition at 10 µM (nACHR-Alpha7): -9.85%
Raw counts of 2-Hydroxybutyric acid (LN229 cells): 261573 and 302862 and 279756
Raw counts of 3-Hydroxybutyric acid (LN229 cells): 1309454 and 1164963 and 1206122
Raw counts of 3-Phosphoglycerate (LN229 cells): 11596.7 and 6745.18 and 3724.31
Raw counts of 3-Phosphoserine (LN229 cells): 6232.78 and 2797.63 and 5215.65
Raw counts of 6-Phosphogluconate (LN229 cells): 5157.27 and 5734.83 and 2668.31
Raw counts of Carbamoyl phosphate (LN229 cells): 45195.2 and 38665.3 and 41961.6
Raw counts of Citrulline (LN229 cells): 498544 and 479590 and 504161
Raw counts of Cytidine (LN229 cells): 67589.2 and 84265.7 and 71881.1
Raw counts of Hypoxanthine (LN229 cells): 1333474 and 1740688 and 1516660
Raw counts of Isoleucine (LN229 cells): 1.29E+08 and 1.33E+08 and 1.18E+08
Raw counts of Lactate (LN229 cells): 3.62E+08 and 3.37E+08 and 3.31E+08
Raw counts of Leucine (LN229 cells): 1.02E+08 and 1.11E+08 and 1.01E+08
Raw counts of Methionine (LN229 cells): 1.89E+07 and 2.12E+07 and 1.99E+07
Raw counts of N-acetyl-glutamine (LN229 cells): 31448.3 and 20555.9 and 36320.3
Raw counts of Orotate (LN229 cells): 0
Raw counts of Phenylalanine (LN229 cells): 7.59E+07 and 8.45E+07 and 7.68E+07
Raw counts of Phosphoenolpyruvate (LN229 cells): 0 and 2071.2 and 2356.81
Raw counts of Pyridoxine (LN229 cells): 4.91E+07 and 5.30E+07 and 4.89E+07
Raw counts of Pyruvate (LN229 cells): 2231037 and 2192759 and 1890595
Raw counts of Ribitol (LN229 cells): 1641581 and 2032681 and 3007411
Raw counts of Sorbitol (LN229 cells): 2.02E+07 and 2.14E+07 and 2.12E+07
Raw counts of Taurine (LN229 cells): 1.22E+07 and 1.24E+07 and 1.15E+07
Raw counts of Tryptophan (LN229 cells): 1.21E+07 and 1.27E+07 and 1.15E+07
Raw counts of Tyrosine (LN229 cells): 4.34E+07 and 4.46E+07 and 4.65E+07
Raw counts of UDP (LN229 cells): 108325 and 86766.9 and 84670.8
Raw counts of Uracil (LN229 cells): 1116835 and 1114912 and 1017401
Raw counts of Uridine (LN229 cells): 932418 and 1052824 and 956012
Raw counts of Valine (LN229 cells): 6.74E+07 and 7.26E+07 and 6.71E+07
Raw counts of Xanthine (LN229 cells): 9846835 and 1.10E+07 and 1.04E+07
stabilization of NPTN in CETSA (in words) (NPTN): not stabilized
Raw counts of 2-Hydroxybutyric acid (HEK293 cells): 460406 and 376147 and 351707
Raw counts of 3-Hydroxybutyric acid (HEK293 cells): 2036524 and 1752460 and 1814028
Raw counts of 3-Phosphoglycerate (HEK293 cells): 54741.2 and 47239.6 and 67920.5
Raw counts of 3-Phosphoserine (HEK293 cells): 379486 and 687080 and 597417
Raw counts of 6-Phosphogluconate (HEK293 cells): 18526.1 and 6100.06 and 8926.16
Raw counts of Carbamoyl phosphate (HEK293 cells): 141074 and 139557 and 164484
Raw counts of Citrulline (HEK293 cells): 520045 and 463794 and 470630
Raw counts of Cytidine (HEK293 cells): 7575.12 and 7385.3 and 7444.6
Raw counts of Hypoxanthine (HEK293 cells): 234438 and 380137 and 398453
Raw counts of Isoleucine (HEK293 cells): 1.16E+08 and 1.15E+08 (2×)
Raw counts of Lactate (HEK293 cells): 5.47E+08 and 4.80E+08 and 4.40E+08
Raw counts of Leucine (HEK293 cells): 9.35E+07 and 8.69E+07 and 8.73E+07
Raw counts of Methionine (HEK293 cells): 2.07E+07 and 2.11E+07 and 2.08E+07
Raw counts of N-acetyl-glutamine (HEK293 cells): 1122707 and 1247401 and 1071948
Raw counts of Orotate (HEK293 cells): 98388.4 and 120085 and 73533.2
Raw counts of Phenylalanine (HEK293 cells): 8.50E+07 and 7.66E+07 and 8.04E+07
Raw counts of Phosphoenolpyruvate (HEK293 cells): 10515.5 and 13057.1 and 9934.64
Raw counts of Pyridoxine (HEK293 cells): 4.65E+07 and 4.40E+07 and 4.42E+07
Raw counts of Pyruvate (HEK293 cells): 7987114 and 6360434 and 6733166
Raw counts of Ribitol (HEK293 cells): 2730293 and 2993915 and 2689879
Raw counts of Sorbitol (HEK293 cells): 1.69E+07 and 1.55E+07 and 1.59E+07
Raw counts of Taurine (HEK293 cells): 2.13E+07 and 2.37E+07 and 2.28E+07
Raw counts of Tryptophan (HEK293 cells): 1.16E+07 and 1.11E+07 and 1.10E+07
Raw counts of Tyrosine (HEK293 cells): 4.24E+07 and 4.04E+07 and 3.95E+07
Raw counts of UDP (HEK293 cells): 175249 and 191418 and 196338
Raw counts of Uracil (HEK293 cells): 1015162 and 942022 and 907732
Raw counts of Uridine (HEK293 cells): 82140.1 and 83430.9 and 107857
Raw counts of Valine (HEK293 cells): 7.12E+07 and 6.86E+07 and 6.72E+07
Raw counts of Xanthine (HEK293 cells): 7637154 and 6442670 and 6627934
inhibition at 10 µM (MAO-A): -8.05%
inhibition at 10 µM (CB1): -7.11%
inhibition at 10 µM (H2): 4.29%
inhibition at 10 µM (NET): -19.9%
CD4 T cells as percentage of total CD45^+ immune cells (in words) (T3-MCA tumors): increased CD4 T cells

CCc1ccccc1C(=O)Nc1cc2c(cc1F)NC(=O)CC2 [MBE1.5, 2-ethyl-N-(7-fluoro-2-oxo-3,4-dihydro-1H-quinolin-6-yl)benzamide]
tumor growth (in words) (T3-MCA sarcoma): dramatically reduced tumor growth
